According to US8741836B2, “Polypeptides” (Novo Nordisk A/S, priority 2011, dated 2014):
Starred links: 1 amine or outer side, 2 acyl side, 3 side chain; linkers in the order of their positions; H or OH if unused. Positions of bridges follow the written chain, without caps; N, C: chain ends. Residues, ends and D or L forms follow the SMILES beside them. *: point of attachment. C20 diacid = O=C(O)CCCCCCCCCCCCCCCCCCC(=O)*; γGlu = O=C(O)[C@H](CCC(=O)[*:2])N[*:1]

Test: Assay (III) ThT fibrillation assay for physical stability
Assay type: physicochemical
Settings: for ThT pH 4.0 lag time: pH 4.0, ThT fibrillation assay
In short: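 Freshly prepared, pH-adjusted formulations with 1 μM ThT incubated at 37 °C under 960 rpm orbital shaking (1 mm), fluorescence (ex 444, em 485 nm) read every 20 min. […] Peptide content before and after measured by reverse-phase HPLC against pramlintide standard.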

| ThT pH 4.0 lag time [h] | ThT pH 4.0 lag time (physical stability in fibrillogenesis assay) [h] | SMILES |
| --- | --- | --- |
| >45 |  | CC[C@H](C)[C@H](NC(=O)[C@@H]1CCCN1C(=O)CNC(=O)[C@H](Cc1ccccc1)NC(=O)[C@H](CC(N)=O)NC(=O)[C@H](CC(N)=O)NC(=O)[C@H](CO)NC(=O)[C@H](CO)NC(=O)[C@H](Cc1c[nH]cn1)NC(=O)[C@H](Cc1c[nH]cn1)NC(=O)[C@H](CC(C)C)NC(=O)[C@H](Cc1ccccc1)NC(=O)[C@H](CCC(=O)O)NC(=O)[C@H](C)NC(=O)[C@H](CC(C)C)NC(=O)[C@H](CCCNC(=N)N)NC(=O)[C@H](CCC(N)=O)NC(=O)[C@@H](NC(=O)[C@H](C)NC(=O)[C@@H]1CSSC[C@H](NC(=O)[C@H](Cc2c[nH]cn2)NC(=O)[C@H](Cc2c[nH]cn2)NC(=O)[C@H](Cc2c[nH]cn2)NC(=O)CC[C@H](NC(=O)CCCCCCCCCCCCCCCCCCC(=O)O)C(=O)O)C(=O)N[C@@H](Cc2c[nH]cn2)C(=O)N[C@@H]([C@@H](C)O)C(=O)N[C@@H](C)C(=O)N[C@@H]([C@@H](C)O)C(=O)N1)[C@@H](C)O)C(=O)N[C@@H](CC(C)C)C(=O)N1CCC[C@H]1C(=O)N1CCC[C@H]1C(=O)N[C@H](C(=O)N[C@@H](CC(N)=O)C(=O)N[C@H](C(=O)NCC(=O)N[C@@H](CO)C(=O)N[C@@H](Cc1c[nH]cn1)C(=O)N[C@H](C(=O)N[C@@H](Cc1ccc(O)cc1)C(N)=O)[C@@H](C)O)C(C)C)[C@@H](C)O [Example 32, N-alpha-[(S)-4-Carboxy-4-(19-carboxynonadecanoylamino)butyryl]-His-His-[His1,His3,Glu14,His17,His35]-pramlintide] ({C20 diacid-γGlu}-HHHCHTATCATQRLAEFLHHSSNNFGPILPPTNVGSHTY-NH2; disulfide 4-9) |
| 26 |  | CC[C@H](C)[C@H](NC(=O)[C@@H]1CCCN1C(=O)CNC(=O)[C@H](Cc1ccccc1)NC(=O)[C@H](CC(N)=O)NC(=O)[C@H](CC(N)=O)NC(=O)[C@H](CO)NC(=O)[C@H](CO)NC(=O)[C@H](Cc1c[nH]cn1)NC(=O)[C@H](Cc1c[nH]cn1)NC(=O)[C@H](CC(C)C)NC(=O)[C@H](Cc1ccccc1)NC(=O)[C@H](CCC(=O)O)NC(=O)[C@H](C)NC(=O)[C@H](CC(C)C)NC(=O)[C@H](CCCNC(=N)N)NC(=O)[C@H](CCC(N)=O)NC(=O)[C@@H](NC(=O)[C@H](C)NC(=O)[C@@H]1CSSC[C@H](NC(=O)[C@H](CCCNC(=N)N)NC(=O)CNC(=O)CC[C@H](NC(=O)CCCCCCCCCCCCCCCCCCC(=O)O)C(=O)O)C(=O)N[C@@H](CC(N)=O)C(=O)N[C@@H]([C@@H](C)O)C(=O)N[C@@H](C)C(=O)N[C@@H]([C@@H](C)O)C(=O)N1)[C@@H](C)O)C(=O)N[C@@H](CC(C)C)C(=O)N1CCC[C@H]1C(=O)N1CCC[C@H]1C(=O)N[C@H](C(=O)N[C@@H](CC(N)=O)C(=O)N[C@H](C(=O)NCC(=O)N[C@@H](CO)C(=O)N[C@@H](Cc1c[nH]cn1)C(=O)N[C@H](C(=O)N[C@@H](Cc1ccc(O)cc1)C(N)=O)[C@@H](C)O)C(C)C)[C@@H](C)O [Example 100, N-alpha-[(S)-4-Carboxy-4-(19-carboxynonadecanoylamino)butyryl]-Gly-[Arg1,Glu14,His17,His35]-pramlintide] ({C20 diacid-γGlu}-GRCNTATCATQRLAEFLHHSSNNFGPILPPTNVGSHTY-NH2; disulfide 3-8 (inferred)) |
| >45 | >45 | CC[C@H](C)[C@H](NC(=O)[C@@H]1CCCN1C(=O)CNC(=O)[C@H](Cc1ccccc1)NC(=O)[C@H](CC(N)=O)NC(=O)[C@H](CC(N)=O)NC(=O)[C@H](CO)NC(=O)[C@H](CO)NC(=O)[C@H](Cc1c[nH]cn1)NC(=O)[C@H](Cc1c[nH]cn1)NC(=O)[C@H](CC(C)C)NC(=O)[C@H](Cc1ccccc1)NC(=O)[C@H](CCC(=O)O)NC(=O)[C@H](C)NC(=O)[C@H](CC(C)C)NC(=O)[C@H](CCCNC(=N)N)NC(=O)[C@H](CCC(N)=O)NC(=O)[C@@H](NC(=O)[C@H](C)NC(=O)[C@@H]1CSSC[C@H](NC(=O)[C@H](CCCCN)NC(=O)CC[C@H](NC(=O)CCCCCCCCCCCCCCCCCCC(=O)O)C(=O)O)C(=O)N[C@@H](CC(N)=O)C(=O)N[C@@H]([C@@H](C)O)C(=O)N[C@@H](C)C(=O)N[C@@H]([C@@H](C)O)C(=O)N1)[C@@H](C)O)C(=O)N[C@@H](CC(C)C)C(=O)N1CCC[C@H]1C(=O)N1CCC[C@H]1C(=O)N[C@H](C(=O)N[C@@H](CC(N)=O)C(=O)N[C@H](C(=O)NCC(=O)N[C@@H](CO)C(=O)N[C@@H](CCCCN)C(=O)N[C@H](C(=O)N[C@@H](Cc1ccc(O)cc1)C(N)=O)[C@@H](C)O)C(C)C)[C@@H](C)O [Example 113, N-alpha-[(S)-4-Carboxy-4-(19-carboxynonadecanoylamino)butyryl]-[Glu14,His17,Lys35]-pramlintide] ({C20 diacid-γGlu}-KCNTATCATQRLAEFLHHSSNNFGPILPPTNVGSKTY-NH2; disulfide 2-7 (inferred)) |
| >45 | >45 | CC[C@H](C)[C@H](NC(=O)[C@@H]1CCCN1C(=O)CNC(=O)[C@H](Cc1ccccc1)NC(=O)[C@H](CC(N)=O)NC(=O)[C@H](CC(N)=O)NC(=O)[C@H](CO)NC(=O)[C@H](CO)NC(=O)[C@H](Cc1c[nH]cn1)NC(=O)[C@H](CCCNC(=N)N)NC(=O)[C@H](CC(C)C)NC(=O)[C@H](Cc1ccccc1)NC(=O)[C@H](CCC(=O)O)NC(=O)[C@H](C)NC(=O)[C@H](CC(C)C)NC(=O)[C@H](CCCNC(=N)N)NC(=O)[C@H](CCC(N)=O)NC(=O)[C@@H](NC(=O)[C@H](C)NC(=O)[C@@H]1CSSC[C@H](NC(=O)[C@H](CCC(=O)O)NC(=O)[C@H](CCCNC(=N)N)NC(=O)[C@H](CCC(=O)O)NC(=O)CC[C@H](NC(=O)CCCCCCCCCCCCCCCCCCC(=O)O)C(=O)O)C(=O)N[C@@H](CC(N)=O)C(=O)N[C@@H]([C@@H](C)O)C(=O)N[C@@H](C)C(=O)N[C@@H]([C@@H](C)O)C(=O)N1)[C@@H](C)O)C(=O)N[C@@H](CC(C)C)C(=O)N1CCC[C@H]1C(=O)N1CCC[C@H]1C(=O)N[C@H](C(=O)N[C@@H](CC(N)=O)C(=O)N[C@H](C(=O)NCC(=O)N[C@@H](CO)C(=O)N[C@@H](CC(N)=O)C(=O)N[C@H](C(=O)N1CCC[C@H]1C(N)=O)[C@@H](C)O)C(C)C)[C@@H](C)O [Example 124, N-alpha-[(S)-4-Carboxy-4-(19-carboxynonadecanoylamino)butyryl]-Glu-Arg-[Glu1,Glu14,Arg17,Pro37]-pramlintide] ({C20 diacid-γGlu}-ERECNTATCATQRLAEFLRHSSNNFGPILPPTNVGSNTP-NH2; disulfide 4-9 (inferred); C-terminus assumed) |
| >45 | >45 | CC[C@H](C)[C@H](NC(=O)[C@@H]1CCCN1C(=O)CNC(=O)[C@H](Cc1ccccc1)NC(=O)[C@H](CO)NC(=O)[C@H](CO)NC(=O)[C@H](CO)NC(=O)[C@H](CO)NC(=O)[C@H](CCCNC(=N)N)NC(=O)[C@@H](NC(=O)[C@H](CC(C)C)NC(=O)[C@H](Cc1ccccc1)NC(=O)[C@H](CCC(=O)O)NC(=O)[C@H](C)NC(=O)[C@H](CC(C)C)NC(=O)[C@H](CCCNC(=N)N)NC(=O)[C@H](CCC(N)=O)NC(=O)[C@@H](NC(=O)[C@H](C)NC(=O)[C@@H]1CSSC[C@H](NC(=O)[C@H](CCCCN)NC(=O)CC[C@H](NC(=O)CCCCCCCCCCCCCCCCCCC(=O)O)C(=O)O)C(=O)N[C@@H](CC(N)=O)C(=O)N[C@@H]([C@@H](C)O)C(=O)N[C@@H](C)C(=O)N[C@@H]([C@@H](C)O)C(=O)N1)[C@@H](C)O)C(C)C)C(=O)N[C@@H](CC(C)C)C(=O)N[C@@H](CO)C(=O)N[C@@H](CO)C(=O)N[C@H](C(=O)N[C@@H](CC(=O)O)C(=O)N[C@H](C(=O)NCC(=O)N[C@@H](CO)C(=O)N[C@@H](CC(=O)O)C(=O)N[C@H](C(=O)N1CCC[C@H]1C(N)=O)[C@@H](C)O)C(C)C)[C@@H](C)O [Example 170, N-alpha-[(S)-4-Carboxy-4-(19-carboxynonadecanoylamino)butyryl]-[Glu14,Arg18,Ser21,Ser22,Ser28,Ser29,Asp31,Asp35,Pro37]-pramlintide] ({C20 diacid-γGlu}-KCNTATCATQRLAEFLVRSSSSFGPILSSTDVGSDTP-NH2; disulfide 2-7) |
| >45 |  | CC(C)C[C@H](NC(=O)[C@H](CCCNC(=N)N)NC(=O)[C@H](CCC(N)=O)NC(=O)[C@@H](NC(=O)[C@H](C)NC(=O)[C@@H]1CSSC[C@H](NC(=O)[C@H](CCCCN)NC(=O)CC[C@H](NC(=O)CCCCCCCCCCCCCCCCCCC(=O)O)C(=O)O)C(=O)N[C@@H](CC(N)=O)C(=O)N[C@@H]([C@@H](C)O)C(=O)N[C@@H](C)C(=O)N[C@@H]([C@@H](C)O)C(=O)N1)[C@@H](C)O)C(=O)N[C@@H](C)C(=O)N[C@@H](CCC(=O)O)C(=O)N[C@@H](Cc1ccccc1)C(=O)N[C@@H](CC(C)C)C(=O)N[C@@H](CCCNC(=N)N)C(=O)N[C@@H](Cc1c[nH]cn1)C(=O)N[C@@H](CO)C(=O)N[C@@H](CO)C(=O)N[C@@H](CC(N)=O)C(=O)N[C@@H](CC(N)=O)C(=O)N[C@@H](Cc1ccccc1)C(=O)NCC(=O)N[C@@H](C)C(=O)N1CCC[C@H]1C(=O)N[C@@H](CC(C)C)C(=O)N[C@@H](CO)C(=O)N[C@@H](CO)C(=O)N[C@H](C(=O)N[C@@H](CC(N)=O)C(=O)N[C@H](C(=O)NCC(=O)N[C@@H](CO)C(=O)N[C@@H](Cc1c[nH]cn1)C(=O)N[C@H](C(=O)N[C@@H](Cc1ccc(O)cc1)C(N)=O)[C@@H](C)O)C(C)C)[C@@H](C)O [Example 65, N-alpha-[(S)-4-Carboxy-4-(19-carboxynonadecanoylamino)butyryl]-[Glu14,Arg17,Ala25,Pro26,Ser28,Ser29,His35]-pramlintide] ({C20 diacid-γGlu}-KCNTATCATQRLAEFLRHSSNNFGAPLSSTNVGSHTY-NH2; disulfide 2-7) |
